Series [1] in a line: Disintegration of uncoated, compressed tablets in deionized water (USP <701>). In kind it is physicochemical. The settings on record: whole, intact tablet in deionized water; single tablet per example. On the procedure:
The uncoated, compressed tablets were assessed for disintegration. The disintegration time was measured using the procedure and apparatus as described by physical test <701>, Disintegration, from The United States Pharmacopeia, Volume 29. The disintegration of a single tablet from each example was measured.

Series [2] can be described thus: Phosphate Binding Assay (excess phosphate, pH 3.0, 37° C., ion chromatography). The settings on record: 2.5 mg La2(CO3)3/mL phosphate solution, 60 minutes; for Binding Capacity, Ground Tablet: whole tablet coarsely ground before analysis; for Binding Capacity, Whole Tablet: whole tablet without further modification. The text has this:
Table II describes the phosphate binding ability of the prepared Examples in either whole or ground tablet form. The ground tablets simulate a chewable tablet formulation after chewing has occurred. Phosphate binding ability is a term used to predict the amount of phosphate that can be bound by a sequestrant under conditions which employ a large excess of phosphate, such as those found in the stomach. Mazzeo, J. R.; et. al. Journal of Pharmaceutical and Biomedical Analysis 1999, vol. 19, pps. 911-915. This assay, which utilizes a large excess of phosphate, is therefore a better functional model of biological conditions than the assay described in U.S. Pat. No. 5,968,976 which utilizes only two molar equivalents of phosphate ion per mole of lanthanum carbonate.
The uncoated, compressed tablets obtained from Examples 1-17 were assessed for phosphate binding ability. Whole tablets, prepared as described above, as well as coarsely ground tablets were both examined.
i. Preparation of stock phosphate solution:
21.4 g N,N-bis(hydroxyethyl)-2-aminoethanesulfonic acid, 4.7 g NaCl, and 2.7 g KH2PO4 (ultra high purity) were added to a 1000 mL volumetric flask and dissolved in 950 mL DI H2O. The pH was then adjusted to 3.0 (±0.05) with HCl, and the solution was diluted to volume with DI H2O and mixed.
The lanthanum carbonate complex was added to the stock phosphate solution so that the final concentration was 2.5 mg La2(CO3)3/mL phosphate solution. The mixture was heated at 37° C. for 60 minutes with constant swirling. It was then filtered through a 0.2 μm nylon filter.
The sample was then diluted to allow injection into the ion chromatograph. Here, a dilution factor of 100 was used: a 1.0 mL aliquot was removed and diluted volumetrically to 100 mL with DI water.
iii. Phosphate Measurement
The amount of unbound phosphate was determined by ion chromatography on a Dionex ICS-1500 ion chromatograph equipped with a conductivity cell (35° C.) and a Dionex MRS 300 4 mm auto suppressor. Material was eluted through a Dionex AG11-HC guard column (4×50 mm) and a Dionex AS11-HC column (4×250 mm) at 1.0 mL/min using 25 mM NaOH in DI H2O as the mobile phase. The sample response was then recorded by a computerized chromatography data system.
iv. Construction of Phosphate Calibration Curve
The linearity of the response was verified as follows. A series of standards over a wide range of free phosphate concentration (approximately 0.04, 0.06, 0.10, 0.15, 0.20, and 0.25 mM) were prepared and their ion chromatographic responses were determined. A plot of free phosphate concentration (mM) vs. response was then constructed. The slope and y-intercept of the resulting linear regression plot were then determined.
The phosphate binding capacity was calculated from the following equations.

Turning to `O=C([O-])[O-].O=C([O-])[O-].O=C([O-])[O-].[La+3].[La+3]` [Example 14, La2(CO3)3•5H20], the “Disintegration Time” value in series [1] worked out at 5 h. For the same molecule, in series [2], the “Binding Capacity, Ground Tablet” value is given as 3.0 mmol PO4-2/g La2(CO3)3 and the “Binding Capacity, Whole Tablet” value was 0.7 mmol PO4-2/g La2(CO3)3.

On to `O.O.O.O.O.O.O.O.O=C([O-])[O-].O=C([O-])[O-].O=C([O-])[O-].[La+3].[La+3]` [Example 15, La2(CO3)3•8H20], for which the “Disintegration Time” value in series [1] was over 7 h. Further, in series [2], the “Binding Capacity, Ground Tablet” value is given as 3.0 mmol PO4-2/g La2(CO3)3 and the “Binding Capacity, Whole Tablet” value is 0.6 mmol PO4-2/g La2(CO3)3.

Consider `O.O.O.O.O.O.O.O.O.O.O.O.O.O.O=C([O-])[O-].O=C([O-])[O-].O=C([O-])[O-].[La+3].[La+3]` [Example 16, La2(CO3)3•14H20], for which the “Disintegration Time” value in series [1] is over 7 h. Moreover, in series [2], the “Binding Capacity, Ground Tablet” value was 3.6 mmol PO4-2/g La2(CO3)3 and the “Binding Capacity, Whole Tablet” value was 0.8 mmol PO4-2/g La2(CO3)3.

Values taken from patent US8962036B2, “Disintegrable formulations of lanthanum carbonate” (Mylan Pharmaceuticals Inc., priority 2009, dated 2015).
